Laboratory results reported in the supplement of paper PMC10307832.

Legend:
Test in all cases: relative viability (nuclei count vs DMSO), 5 days (fraction); higher = more cells survive
NCI-H1793 = test system: NCI-H1793
How it was run: (§1)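 After 5 days of treatment, lung cancer cells in 1536-well plates were fixed and stained in a single step (final 0.05% Triton X-100, 1% formaldehyde, 1 ug/ml Hoechst) and their nuclei counted on 4× images. Treatment had been applied by pin tool the day after seeding as one drug alone or as a fixed anchor-drug dose with five library-drug doses (not always all listed) in √10 steps. Relative viability is the nuclei count of treated wells divided by that of vehicle wells, and values are medians of duplicate plates.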

ChaGo-K-1 = test system: ChaGo-K-1
How it was run: as §1

HCC-15 = test system: HCC-15
How it was run: as §1

NCI-H1993 = test system: NCI-H1993
How it was run: as §1

ABC-1 = test system: ABC-1
How it was run: as §1

NCI-H1944 = test system: NCI-H1944
How it was run: as §1

HARA = test system: HARA
How it was run: as §1

SK-LU-1 = test system: SK-LU-1
How it was run: as §1

NCI-H2126 = test system: NCI-H2126
How it was run: as §1

LC-2-ad = test system: LC-2-ad
How it was run: as §1

NCI-H1734 = test system: NCI-H1734
How it was run: as §1

NCI-H838 = test system: NCI-H838
How it was run: as §1

NCI-H2228 = test system: NCI-H2228
How it was run: as §1

NCI-H2405 = test system: NCI-H2405
How it was run: as §1

A-427 = test system: A-427
How it was run: as §1

UMC-11 = test system: UMC-11
How it was run: as §1

EMC-BAC-2 = test system: EMC-BAC-2
How it was run: as §1

NCI-H23 = test system: NCI-H23
How it was run: as §1

NCI-H2009 = test system: NCI-H2009
How it was run: as §1

NCI-H2023 = test system: NCI-H2023
How it was run: as §1

COR-L23 = test system: COR-L23
How it was run: as §1

SMILES: C=C1C(=O)O[C@@H](CCCCCCCC)[C@@H]1C(=O)O [C-75] + CCNC(=O)c1noc(-c2cc(C(C)C)c(O)cc2O)c1-c1ccc(CN2CCOCC2)cc1 [Luminespib] (partner 0.01 µM)
- relative viability (NCI-H1793; first compound 0.08 µM): 0.18
- relative viability (NCI-H1793; first compound 0.253 µM): 0.148
- relative viability (NCI-H1793; first compound 0.8 µM): 0.141
- relative viability (NCI-H1793; first compound 2.53 µM): 0.264
- relative viability (NCI-H1793; first compound 8 µM): 0.224
- relative viability (ChaGo-K-1; first compound 0.08 µM): 0.524
- relative viability (ChaGo-K-1; first compound 0.253 µM): 0.587
- relative viability (ChaGo-K-1; first compound 0.8 µM): 0.598
- relative viability (ChaGo-K-1; first compound 2.53 µM): 0.638
- relative viability (ChaGo-K-1; first compound 8 µM): 0.478
- relative viability (HCC-15; first compound 0.08 µM): 0.303
- relative viability (HCC-15; first compound 0.253 µM): 0.271
- relative viability (HCC-15; first compound 0.8 µM): 0.148
- relative viability (HCC-15; first compound 2.53 µM): 0.345
- relative viability (HCC-15; first compound 8 µM): 0.196
- relative viability (NCI-H1993; first compound 0.08 µM): 0.988
- relative viability (NCI-H1993; first compound 0.253 µM): 0.806
- relative viability (NCI-H1993; first compound 0.8 µM): 0.787
- relative viability (NCI-H1993; first compound 2.53 µM): 0.875
- relative viability (NCI-H1993; first compound 8 µM): 0.83
- relative viability (ABC-1; first compound 0.253 µM): 0.389
- relative viability (ABC-1; first compound 0.8 µM): 0.51
- relative viability (ABC-1; first compound 2.53 µM): 0.364
- relative viability (ABC-1; first compound 8 µM): 0.378
- relative viability (NCI-H1944; first compound 0.08 µM): 0.777
- relative viability (NCI-H1944; first compound 0.253 µM): 0.642
- relative viability (NCI-H1944; first compound 0.8 µM): 0.684
- relative viability (NCI-H1944; first compound 8 µM): 0.761
- relative viability (HARA; first compound 0.08 µM): 0.684
- relative viability (HARA; first compound 0.253 µM): 0.684
- relative viability (HARA; first compound 0.8 µM): 0.683
- relative viability (HARA; first compound 2.53 µM): 0.712
- relative viability (HARA; first compound 8 µM): 0.612
- relative viability (SK-LU-1; first compound 0.08 µM): 0.202
- relative viability (SK-LU-1; first compound 0.253 µM): 0.191
- relative viability (SK-LU-1; first compound 0.8 µM): 0.184
- relative viability (SK-LU-1; first compound 2.53 µM): 0.193
- relative viability (SK-LU-1; first compound 8 µM): 0.161
- relative viability (NCI-H2126; first compound 0.08 µM): 0.931
- relative viability (NCI-H2126; first compound 0.253 µM): 0.977
- relative viability (NCI-H2126; first compound 0.8 µM): 0.804
- relative viability (NCI-H2126; first compound 2.53 µM): 0.815
- relative viability (NCI-H2126; first compound 8 µM): 0.872
- relative viability (LC-2-ad; first compound 0.08 µM): 1.06
- relative viability (LC-2-ad; first compound 0.253 µM): 0.801
- relative viability (LC-2-ad; first compound 0.8 µM): 0.95
- relative viability (LC-2-ad; first compound 2.53 µM): 0.797
- relative viability (LC-2-ad; first compound 8 µM): 0.91
- relative viability (NCI-H1734; first compound 0.08 µM): 0.201
- relative viability (NCI-H1734; first compound 0.253 µM): 0.192
- relative viability (NCI-H1734; first compound 0.8 µM): 0.178
- relative viability (NCI-H1734; first compound 2.53 µM): 0.184
- relative viability (NCI-H1734; first compound 8 µM): 0.185
- relative viability (NCI-H838; first compound 0.08 µM): 0.325
- relative viability (NCI-H838; first compound 0.8 µM): 0.296
- relative viability (NCI-H838; first compound 2.53 µM): 0.286
- relative viability (NCI-H838; first compound 8 µM): 0.238
- relative viability (NCI-H2228; first compound 0.08 µM): 0.135
- relative viability (NCI-H2228; first compound 0.253 µM): 0.161
- relative viability (NCI-H2228; first compound 0.8 µM): 0.116
- relative viability (NCI-H2228; first compound 2.53 µM): 0.181
- relative viability (NCI-H2228; first compound 8 µM): 0.283
- relative viability (NCI-H2405; first compound 0.08 µM): 0.822
- relative viability (NCI-H2405; first compound 0.253 µM): 0.478
- relative viability (NCI-H2405; first compound 0.8 µM): 0.716
- relative viability (NCI-H2405; first compound 2.53 µM): 0.558
- relative viability (NCI-H2405; first compound 8 µM): 0.869
- relative viability (A-427; first compound 0.08 µM): 0.931
- relative viability (A-427; first compound 0.253 µM): 0.788
- relative viability (A-427; first compound 0.8 µM): 0.922
- relative viability (A-427; first compound 2.53 µM): 0.842
- relative viability (A-427; first compound 8 µM): 0.703
- relative viability (UMC-11; first compound 0.08 µM): 0.992
- relative viability (UMC-11; first compound 0.253 µM): 1.01
- relative viability (UMC-11; first compound 0.8 µM): 1.03
- relative viability (UMC-11; first compound 2.53 µM): 0.712
- relative viability (UMC-11; first compound 8 µM): 0.742
- relative viability (EMC-BAC-2; first compound 0.08 µM): 1.25
- relative viability (EMC-BAC-2; first compound 0.253 µM): 1.24
- relative viability (EMC-BAC-2; first compound 0.8 µM): 1.05
- relative viability (EMC-BAC-2; first compound 2.53 µM): 0.876
- relative viability (EMC-BAC-2; first compound 8 µM): 1.18
- relative viability (NCI-H23; first compound 0.08 µM): 0.246
- relative viability (NCI-H23; first compound 0.253 µM): 0.206
- relative viability (NCI-H23; first compound 0.8 µM): 0.198
- relative viability (NCI-H23; first compound 2.53 µM): 0.222
- relative viability (NCI-H23; first compound 8 µM): 0.209
- relative viability (NCI-H2009; first compound 0.08 µM): 1.02
- relative viability (NCI-H2009; first compound 0.253 µM): 1.05
- relative viability (NCI-H2009; first compound 0.8 µM): 1
- relative viability (NCI-H2009; first compound 2.53 µM): 0.999
- relative viability (NCI-H2009; first compound 8 µM): 0.793
- relative viability (NCI-H2023; first compound 0.08 µM): 0.746
- relative viability (NCI-H2023; first compound 0.253 µM): 0.921
- relative viability (NCI-H2023; first compound 0.8 µM): 0.706
- relative viability (NCI-H2023; first compound 8 µM): 0.696
- relative viability (COR-L23; first compound 0.08 µM): 0.63
- relative viability (COR-L23; first compound 0.253 µM): 0.706
- relative viability (COR-L23; first compound 0.8 µM): 0.682
- relative viability (COR-L23; first compound 2.53 µM): 0.66
- relative viability (COR-L23; first compound 8 µM): 0.559
